Read-outs that look alike come from different tables or passages of the source.
Experiments:
Type in all cases: biochemical
kinases [1] = target: kinases (Homo sapiens, UniProt O75385); conditions: ULK1 FRET-Lantha SP; Test Conc(μM) 1
kinases [2] = target: kinases (Homo sapiens, UniProt Q86Y07); conditions: VRK2 FRET-Lantha SP; Test Conc(μM) 1
kinases [3] = target: kinases (Homo sapiens, UniProt Q7KZI7); conditions: MARK2 FRET-Z-Lyte SP; Test Conc(μM):ATP Conc(μM) 1:10
kinases [4] = target: kinases (Homo sapiens, UniProt O14986); conditions: Test Conc(μM):ATP Conc(μM) 1:10
kinases [5] = target: kinases (Homo sapiens, UniProt Q04759); conditions: PRKCQ (PKC theta) Z-Lyte SP; Test Conc(μM):ATP Conc(μM) 1:100
kinases [6] = target: kinases (Homo sapiens, UniProt Q9BYP7); conditions: WNK3 FRET-Lantha SP; Test Conc(μM) 1
kinases [7] = target: kinases (Homo sapiens, UniProt O00443); conditions: PIK3C2A FRET-Adapta SP; Test Conc(μM):ATP Conc(μM) 1:25
kinases [8] = target: kinases (Homo sapiens, UniProt P11802); conditions: Test Conc(μM):ATP Conc(μM) 1:10
kinases [9] = target: kinases (Homo sapiens, UniProt Q08345); conditions: DDR1 FRET-Lantha SP; Test Conc(μM) 1
kinases [10] = target: kinases (Homo sapiens, UniProt P11309); conditions: PIM1 FRET-Z-Lyte SP; Test Conc(μM):ATP Conc(μM) 1:400
kinases [11] = target: kinases (Homo sapiens, UniProt P09769); conditions: FGR FRET-Z-Lyte SP; Test Conc(μM):ATP Conc(μM) 1:10
kinases [12] = target: kinases (Homo sapiens, UniProt Q9P286); conditions: PAK7 (KIAA1264) FRET-Z-Lyte SP; Test Conc(μM):ATP Conc(μM) 1:5
kinases [13] = target: kinases (Homo sapiens, UniProt Q02750)
kinases [14] = target: kinases (Homo sapiens, UniProt Q9Y3S1); conditions: WNK2 FRET-Lantha SP; Test Conc(μM) 1
kinases [15] = target: kinases (Homo sapiens, UniProt Q16620); conditions: NTRK2 (TRKB) *Mn* Z-Lyte SP; Test Conc(μM):ATP Conc(μM) 1:25
kinases [16] = target: kinases (Homo sapiens, UniProt Q15569); conditions: TESK1 FRET-Lantha SP; Test Conc(μM) 1
kinases [17] = target: kinases (Homo sapiens, UniProt Q99558); conditions: MAP3K14 (NIK) FRET-Lantha SP; Test Conc(μM) 1
kinases [18] = target: kinases (Homo sapiens, UniProt O00506); conditions: STK25 (YSK1) FRET-Z-Lyte SP; Test Conc(μM):ATP Conc(μM) 1:75
kinases [19] = target: kinases (Homo sapiens, UniProt P17612); conditions: PRKACA (PKA) FRET-Z-Lyte SP; Test Conc(μM):ATP Conc(μM) 1:5
kinases [20] = target: kinases (Homo sapiens, UniProt O95835); conditions: LATS1 FRET-Lantha SP; Test Conc(μM) 1
kinases [21] = target: kinases (Homo sapiens, UniProt P04629); conditions: NTRK1 (TRKA) FRET-Z-Lyte SP; Test Conc(μM):ATP Conc(μM) 1:400
kinases [22] = target: kinases (Homo sapiens, UniProt Q06187); conditions: BTK FRET-Z-Lyte SP; Test Conc(μM):ATP Conc(μM) 1:25
kinases [23] = target: kinases (Homo sapiens, UniProt Q9BYT3); conditions: STK33 FRET-Lantha SP; Test Conc(μM) 1
kinases [24] = target: kinases (Homo sapiens, UniProt Q99640); conditions: PKMYT1 FRET-Lantha SP; Test Conc(μM) 1
kinases [25] = target: kinases (Homo sapiens, UniProt Q9H2G2); conditions: SLK Hu Bind FRET-Lantha SP; Test Conc(μM) 1
kinases [26] = target: kinases (Homo sapiens, UniProt Q8TDX7); conditions: NEK7 FRET-Z-Lyte SP; Test Conc(μM):ATP Conc(μM) 1:50
kinases [27] = target: kinases (Homo sapiens, UniProt P29323); conditions: EPHB2 FRET-Z-Lyte SP; Test Conc(μM):ATP Conc(μM) 1:75
kinases [28] = target: kinases (Homo sapiens, UniProt Q96BR1); conditions: SGKL (SGK3) FRET-Z-Lyte SP; Test Conc(μM):ATP Conc(μM) 1:10
kinases [29] = target: kinases (Homo sapiens, UniProt Q8IY84); conditions: NIM1K FRET-Z-Lyte SP; Test Conc(μM):ATP Conc(μM) 1:10
[30] = MAP2K1 (MEK1) FRET-Lantha SP, Test Conc(μM) 1
[31] = MAP2K1 (MEK1)Cascade Z-Lyte SP, Test Conc(μM):ATP Conc(μM) 1:100

Sequence of kinases (Homo sapiens, UniProt P11802) (P11802 whole entry): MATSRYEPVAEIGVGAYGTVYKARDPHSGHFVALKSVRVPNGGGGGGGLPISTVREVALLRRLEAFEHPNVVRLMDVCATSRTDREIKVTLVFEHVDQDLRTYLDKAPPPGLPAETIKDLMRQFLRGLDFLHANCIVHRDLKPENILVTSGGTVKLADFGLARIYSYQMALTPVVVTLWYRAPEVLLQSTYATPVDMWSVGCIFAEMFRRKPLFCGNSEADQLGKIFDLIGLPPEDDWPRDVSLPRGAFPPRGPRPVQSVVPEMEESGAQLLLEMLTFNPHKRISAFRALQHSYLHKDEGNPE
Sequence of kinases (Homo sapiens, UniProt Q02750) (Q02750 whole entry): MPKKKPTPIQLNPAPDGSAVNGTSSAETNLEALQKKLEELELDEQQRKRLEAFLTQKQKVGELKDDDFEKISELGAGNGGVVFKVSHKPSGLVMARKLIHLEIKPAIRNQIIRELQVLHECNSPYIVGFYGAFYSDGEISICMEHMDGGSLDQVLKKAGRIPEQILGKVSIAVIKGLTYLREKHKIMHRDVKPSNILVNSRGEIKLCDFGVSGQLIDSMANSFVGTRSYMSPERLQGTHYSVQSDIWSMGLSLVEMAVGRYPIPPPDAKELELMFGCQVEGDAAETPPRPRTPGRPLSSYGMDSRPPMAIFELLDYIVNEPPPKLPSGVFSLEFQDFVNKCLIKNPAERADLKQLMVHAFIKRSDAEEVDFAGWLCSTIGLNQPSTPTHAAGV
Sequence of kinases (Homo sapiens, UniProt O14986) (O14986 whole entry): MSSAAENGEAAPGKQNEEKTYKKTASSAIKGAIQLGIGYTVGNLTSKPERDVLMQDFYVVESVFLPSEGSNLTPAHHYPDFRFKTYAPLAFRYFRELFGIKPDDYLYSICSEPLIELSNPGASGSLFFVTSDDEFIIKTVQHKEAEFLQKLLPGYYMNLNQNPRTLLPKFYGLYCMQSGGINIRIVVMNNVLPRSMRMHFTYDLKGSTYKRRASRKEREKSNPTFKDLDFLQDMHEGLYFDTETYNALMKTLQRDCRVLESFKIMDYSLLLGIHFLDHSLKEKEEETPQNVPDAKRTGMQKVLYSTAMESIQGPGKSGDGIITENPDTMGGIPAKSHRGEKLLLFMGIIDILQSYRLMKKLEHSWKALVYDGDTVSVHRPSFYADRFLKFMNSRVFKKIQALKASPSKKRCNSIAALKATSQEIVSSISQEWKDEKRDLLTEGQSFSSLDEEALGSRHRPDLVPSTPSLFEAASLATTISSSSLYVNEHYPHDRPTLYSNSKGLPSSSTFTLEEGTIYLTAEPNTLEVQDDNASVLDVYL
Sequence of kinases (Homo sapiens, UniProt Q9BYP7) (Q9BYP7 whole entry): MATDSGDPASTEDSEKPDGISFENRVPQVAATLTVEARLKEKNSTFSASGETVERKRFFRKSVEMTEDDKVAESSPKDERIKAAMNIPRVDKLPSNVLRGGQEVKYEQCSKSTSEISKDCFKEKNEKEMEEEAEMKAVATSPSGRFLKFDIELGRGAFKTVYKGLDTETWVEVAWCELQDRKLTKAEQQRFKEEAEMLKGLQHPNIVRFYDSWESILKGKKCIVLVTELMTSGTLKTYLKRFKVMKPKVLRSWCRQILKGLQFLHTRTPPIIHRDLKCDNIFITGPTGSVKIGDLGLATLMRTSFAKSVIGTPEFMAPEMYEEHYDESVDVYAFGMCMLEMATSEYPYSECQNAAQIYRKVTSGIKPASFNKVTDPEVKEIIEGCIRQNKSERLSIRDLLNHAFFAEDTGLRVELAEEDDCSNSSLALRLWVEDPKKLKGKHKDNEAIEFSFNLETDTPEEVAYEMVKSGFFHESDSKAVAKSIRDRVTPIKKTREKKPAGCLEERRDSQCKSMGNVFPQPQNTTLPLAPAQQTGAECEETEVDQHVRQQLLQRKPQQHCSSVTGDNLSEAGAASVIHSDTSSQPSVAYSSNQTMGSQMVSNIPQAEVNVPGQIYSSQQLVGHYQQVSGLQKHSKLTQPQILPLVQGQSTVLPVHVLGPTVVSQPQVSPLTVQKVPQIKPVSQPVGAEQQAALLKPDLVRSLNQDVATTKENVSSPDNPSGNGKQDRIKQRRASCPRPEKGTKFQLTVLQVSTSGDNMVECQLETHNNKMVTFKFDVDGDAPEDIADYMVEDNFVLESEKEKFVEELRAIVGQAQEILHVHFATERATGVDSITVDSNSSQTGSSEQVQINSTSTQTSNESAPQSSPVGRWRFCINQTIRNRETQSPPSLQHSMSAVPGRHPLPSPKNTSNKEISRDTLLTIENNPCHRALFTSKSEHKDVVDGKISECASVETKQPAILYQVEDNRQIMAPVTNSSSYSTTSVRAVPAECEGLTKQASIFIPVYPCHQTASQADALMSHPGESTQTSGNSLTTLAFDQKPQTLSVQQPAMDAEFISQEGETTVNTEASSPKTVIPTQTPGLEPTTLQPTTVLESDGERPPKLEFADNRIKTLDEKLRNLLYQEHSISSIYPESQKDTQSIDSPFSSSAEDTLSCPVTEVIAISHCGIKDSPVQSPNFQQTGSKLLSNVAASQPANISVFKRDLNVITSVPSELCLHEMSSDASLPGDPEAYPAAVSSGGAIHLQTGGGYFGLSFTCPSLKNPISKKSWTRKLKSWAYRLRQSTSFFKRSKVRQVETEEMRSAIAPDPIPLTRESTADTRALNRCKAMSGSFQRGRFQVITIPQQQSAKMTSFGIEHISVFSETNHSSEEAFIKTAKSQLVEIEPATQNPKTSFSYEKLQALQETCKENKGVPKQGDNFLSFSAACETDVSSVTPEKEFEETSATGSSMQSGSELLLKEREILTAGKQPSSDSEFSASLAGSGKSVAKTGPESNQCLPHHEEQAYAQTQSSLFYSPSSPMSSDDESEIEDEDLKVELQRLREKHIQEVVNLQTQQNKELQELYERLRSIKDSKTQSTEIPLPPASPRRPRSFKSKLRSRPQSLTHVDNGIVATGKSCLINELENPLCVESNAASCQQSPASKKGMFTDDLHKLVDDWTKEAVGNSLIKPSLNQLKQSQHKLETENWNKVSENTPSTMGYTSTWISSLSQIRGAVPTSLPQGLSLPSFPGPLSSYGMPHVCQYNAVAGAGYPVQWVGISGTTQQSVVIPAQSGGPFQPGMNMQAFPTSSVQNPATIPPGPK
Sequence of kinases (Homo sapiens, UniProt O00443) (O00443 whole entry): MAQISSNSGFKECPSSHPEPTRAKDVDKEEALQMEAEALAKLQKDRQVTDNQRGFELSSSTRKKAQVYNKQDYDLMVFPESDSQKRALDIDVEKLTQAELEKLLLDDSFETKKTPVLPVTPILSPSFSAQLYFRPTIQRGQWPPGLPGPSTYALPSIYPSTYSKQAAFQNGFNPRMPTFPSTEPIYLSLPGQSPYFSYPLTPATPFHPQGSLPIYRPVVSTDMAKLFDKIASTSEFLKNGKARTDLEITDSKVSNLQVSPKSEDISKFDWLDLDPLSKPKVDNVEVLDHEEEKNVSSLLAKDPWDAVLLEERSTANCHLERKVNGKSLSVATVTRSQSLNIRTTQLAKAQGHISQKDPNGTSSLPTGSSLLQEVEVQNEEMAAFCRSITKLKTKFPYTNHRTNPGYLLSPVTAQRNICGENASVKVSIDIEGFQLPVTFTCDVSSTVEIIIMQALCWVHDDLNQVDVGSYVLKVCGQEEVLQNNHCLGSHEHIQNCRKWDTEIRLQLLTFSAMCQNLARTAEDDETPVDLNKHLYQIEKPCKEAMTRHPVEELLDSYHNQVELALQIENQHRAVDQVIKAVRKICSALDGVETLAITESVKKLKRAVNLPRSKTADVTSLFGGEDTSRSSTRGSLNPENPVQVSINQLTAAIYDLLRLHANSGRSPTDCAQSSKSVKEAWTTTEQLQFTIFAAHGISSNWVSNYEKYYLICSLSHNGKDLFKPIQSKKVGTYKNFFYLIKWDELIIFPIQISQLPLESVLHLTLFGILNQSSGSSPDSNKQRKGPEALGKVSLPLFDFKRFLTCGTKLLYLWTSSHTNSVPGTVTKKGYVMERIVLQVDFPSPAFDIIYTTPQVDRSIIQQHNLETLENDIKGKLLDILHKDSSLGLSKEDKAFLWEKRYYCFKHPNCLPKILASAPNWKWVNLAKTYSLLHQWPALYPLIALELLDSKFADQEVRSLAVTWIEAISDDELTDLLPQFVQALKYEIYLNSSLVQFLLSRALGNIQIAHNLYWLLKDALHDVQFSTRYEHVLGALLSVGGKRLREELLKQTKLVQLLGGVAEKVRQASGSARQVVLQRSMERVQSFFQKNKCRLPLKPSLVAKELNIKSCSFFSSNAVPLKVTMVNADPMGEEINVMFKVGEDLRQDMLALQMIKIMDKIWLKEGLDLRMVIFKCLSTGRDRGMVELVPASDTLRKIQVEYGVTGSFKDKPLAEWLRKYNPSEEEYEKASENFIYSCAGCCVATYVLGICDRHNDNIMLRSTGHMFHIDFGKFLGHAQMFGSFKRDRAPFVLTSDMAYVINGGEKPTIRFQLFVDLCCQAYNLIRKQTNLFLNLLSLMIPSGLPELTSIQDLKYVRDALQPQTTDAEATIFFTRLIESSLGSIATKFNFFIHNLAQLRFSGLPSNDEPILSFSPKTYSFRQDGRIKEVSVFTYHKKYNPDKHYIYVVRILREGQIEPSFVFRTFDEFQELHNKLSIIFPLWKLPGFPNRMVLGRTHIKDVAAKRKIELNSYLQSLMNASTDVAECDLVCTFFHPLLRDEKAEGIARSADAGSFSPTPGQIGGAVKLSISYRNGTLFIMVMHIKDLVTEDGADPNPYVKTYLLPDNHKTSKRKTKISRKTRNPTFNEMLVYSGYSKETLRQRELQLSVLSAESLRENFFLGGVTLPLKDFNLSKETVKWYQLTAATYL
Sequence of kinases (Homo sapiens, UniProt P11309) (P11309 whole entry): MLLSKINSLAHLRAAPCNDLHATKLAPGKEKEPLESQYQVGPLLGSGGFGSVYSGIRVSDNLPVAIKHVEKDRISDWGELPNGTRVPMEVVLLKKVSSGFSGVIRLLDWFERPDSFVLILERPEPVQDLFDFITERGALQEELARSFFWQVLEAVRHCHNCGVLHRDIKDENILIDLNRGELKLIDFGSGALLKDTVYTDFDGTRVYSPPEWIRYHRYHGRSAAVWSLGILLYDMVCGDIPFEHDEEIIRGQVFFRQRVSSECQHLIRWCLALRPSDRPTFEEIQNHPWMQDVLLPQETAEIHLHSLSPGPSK

SMILES: Cc1cc(Oc2ccnc(Nc3ccc(S(N)(=O)=O)cc3)c2)c(-c2ccccn2)nc1C [compound 65]
- Mean Inhib (%) (kinases [1]): 0.1%
- Mean Inhib (%) (kinases [2]): −16.6%
- Mean Inhib (%) (kinases [3]): 3.8%
- PIP5K1B FRET-Adapta SP Mean Mean Inhib (%) (kinases [4]; PIP5K1B): 2.1%
- Mean Inhib (%) (kinases [5]): 5.9%
- Mean Inhib (%) (kinases [6]): −2.5%
- Mean Inhib (%) (kinases [7]): 8.7%
- CDK4 Cyclin D1 *Mn* Adapta SP Mean Mean Inhib (%) (kinases [8]; CDK4 Cyclin D1, Mn): 2.5%
- CDK4 Cyclin D3 *Mn* Adapta SP Mean Mean Inhib (%) (kinases [8]; CDK4 Cyclin D3, Mn): −3.9%
- Mean Inhib (%) (kinases [9]): 1.7%
- Mean Inhib (%) (kinases [10]): 3.8%
- Mean Inhib (%) (kinases [11]): 67.3%
- Mean Inhib (%) (kinases [12]): 4.7%
- Mean Inhib (%) (kinases [13]; [30]): −0.5%
- Mean Inhib (%) (kinases [13]; [31]): 17.3%
- Mean Inhib (%) (kinases [14]): 5.8%
- Mean Inhib (%) (kinases [15]): 0.7%
- Mean Inhib (%) (kinases [16]): 15.5%
- Mean Inhib (%) (kinases [17]): 4.9%
- Mean Inhib (%) (kinases [18]): 2.0%
- Mean Inhib (%) (kinases [19]): −4.7%
- Mean Inhib (%) (kinases [20]): 17.2%
- Mean Inhib (%) (kinases [21]): 20.1%
- Mean Inhib (%) (kinases [22]): 29.9%
- Mean Inhib (%) (kinases [23]): −6.6%
- Mean Inhib (%) (kinases [24]): −14.5%
- Mean Inhib (%) (kinases [25]): 3.0%
- Mean Inhib (%) (kinases [26]): 6.9%
- Mean Inhib (%) (kinases [27]): 58.7%
- Mean Inhib (%) (kinases [28]): 4.7%
- Mean Inhib (%) (kinases [29]): −0.4%

SMILES: Cc1ccc(NC(=O)c2ccnc(N3CCOCC3)c2)cc1Nc1ccnc(N2CC(C)OC(C)C2)n1 (centres unmarked) [compound 3]
- Mean Inhib (%) (kinases [1]): 1.6%
- Mean Inhib (%) (kinases [2]): −5.7%
- Mean Inhib (%) (kinases [3]): 7.4%
- Mean Inhib (%) (kinases [4]; PIP5K1B FRET-Adapta SP): 4.5%
- Mean Inhib (%) (kinases [5]): 15.6%
- Mean Inhib (%) (kinases [6]): 5.3%
- Mean Inhib (%) (kinases [7]): 1.7%
- Mean Inhib (%) (kinases [8]; CDK4 Cyclin D1 *Mn* Adapta SP): 7.8%
- Mean Inhib (%) (kinases [8]; CDK4 Cyclin D3 *Mn* Adapta SP): 5.0%
- Mean Inhib (%) (kinases [9]): 82.4%
- Mean Inhib (%) (kinases [10]): 7.8%
- Mean Inhib (%) (kinases [11]): 9.4%
- Mean Inhib (%) (kinases [12]): 3.9%
- Mean Inhib (%) (kinases [13]; [30]): −3.2%
- Mean Inhib (%) (kinases [13]; [31]): 20.0%
- Mean Inhib (%) (kinases [14]): 9.6%
- Mean Inhib (%) (kinases [15]): 1.9%
- Mean Inhib (%) (kinases [16]): −2.5%
- Mean Inhib (%) (kinases [17]): −1.3%
- Mean Inhib (%) (kinases [18]): 8.8%
- Mean Inhib (%) (kinases [19]): 2.2%
- Mean Inhib (%) (kinases [20]): 19.8%
- Mean Inhib (%) (kinases [21]): 30.7%
- Mean Inhib (%) (kinases [22]): 6.7%
- Mean Inhib (%) (kinases [23]): 1.7%
- Mean Inhib (%) (kinases [24]): 9.3%
- Mean Inhib (%) (kinases [25]): −3.6%
- Mean Inhib (%) (kinases [26]): 7.4%
- Mean Inhib (%) (kinases [27]): 6.1%
- Mean Inhib (%) (kinases [28]): 13.3%
- Mean Inhib (%) (kinases [29]): −0.9%

Source: patent US20220187282A1, “CARDIOMYOCYTE PROLIFERATION” (The Council of the Queensland Institute of Medical Research, priority 2019, published 2022)
